Reference: patent publication US10961242B2, “Compounds as autotaxin inhibitors and pharmaceutical compositions comprising the same” (LegoChem Biosciences, Inc., priority 2018, dated 2021)
Where two headings read alike, the source gives them in different places.

Experiments:
[1] = target: human ENPP2 (Homo sapiens (Human), UniProt Q13822); assay: Inhibitory activity on human ENPP2 (FS-3 assay); format: biochemical
Description: Two-fold dilution of each test compound solution (10 μM, 100% dimethyl sulfoxide) is carried out on 96-well V bottom plate (Costar 3363). After ten-fold dilution of each the test compound solution (100% dimethyl sulfoxide) with deionized distilled water, 10 μL of the diluted each mpound solution (10% dimethyl sulfoxide) was aliquoted to a black flat bottom 96-well plate (Costar 3915).

[2] = tested on: LPA production in blood serum caused by autotoxin; assay: Inhibitory activity on LPA production in mouse blood serum; format: biochemical; settings: mouse blood serum (m), 18:1 LPC, 3 hours at 37° C.
Description: (§1) After 100-fold dilution of each test compound solution (5 μL) (10 mM, 100%, dimethyl sulfoxide) with 495 μL of methanol, 3 μL of the diluted methanol solution (1% dimethyl sulfoxide) was mixed with 57 μL of human or mouse blood serum solution in a 1.5 mL tube. […] Subsequently, a solution prepared by diluting 10 mg/mL 18:1 LPC solution (50% ethanol) with blood serum to have concentration of 375 μg/mL was aliquoted in an amount of 2 μL to each tube so as to have 50 μL. Each tube was kept for 3 hours in a water bath at 37° C. to allow a reaction. To the tube obtained after the reaction, 100 μL of 0.5 μM 17:0 LPA solution (chloroform/methanol/water=65/35/8) was aliquoted and mixed therein. Centrifuge was carried out for 10 minutes using a centrifuge at conditions of 14,000 rpm and 4° C. 100 μL of 50% methanol solution is aliquoted first to a 96-well polypropylene plate (Agilent Technology 5042-1385), and the supernatant (50 μL) in a tube after the centrifuge was carefully transferred to the plate followed by mixing. After covering it with Well cap (Thermo 276011), analysis was carried out by LC-MS/MS (Agilent 1260).
(§2) In the following Table 3, the mouse blood serum was described as (m) and human blood serum was described as (h).

[3] = tested on: LPA production in blood serum caused by autotoxin; assay: Inhibitory activity on LPA production in human blood serum; format: biochemical; settings: human blood serum (h), 18:1 LPC, 3 hours at 37° C.
Description: as §1, §2

[4] = target: human ATX (Homo sapiens (Human), UniProt Q13822); assay: Bis-pNPP assay; format: biochemical; settings: bis-pNPP substrate, read-out: Enzymatic assay (IC50) bis-pNPP
Description: Eight-fold dilution of each test compound solution (10 μM, 100% dimethyl sulfoxide) is carried out on 96-well V bottom plate (Costar 3363). After […] of each test compound solution (100% dimethyl sulfoxide) with deionized distilled water, 10 μL of the diluted each test compound solution (10% dimethyl sulfoxide) was aliquoted to a black flat bottom 96-well plate (Costar 3915). 50 μL of 60 mM Tris-HCl (pH9.0) buffer was added thereto, and subsequently 20 μL of 3.75 nM human ATX solution (buffer solution: 50 mM Tris-HCl (pH8.5), 5 mM CaCl2, 2.5 mM MgCl2, 0.01% Brij35) and 20 μL of 25 mM Bis-pNPP (bis(p-Nitrophenyl)-phosphate sodium salt) solution (buffer solution: 50 mM Tris-HCl (pH9.0)) were added thereto, respectively, followed by mixing. […] Furthermore, IC50 values that are shown in Table 3 were calculated using Grafit5 Software based on the inhibitory activity percentage ratio.

[5] = tested on: LPA production in mouse plasma; assay: Ex-vivo assay (LPC assay) in mouse plasma; format: biochemical; settings: LPA 18:1
Description: After 100-fold dilution of each test compound solution (5 μL) (10 mM, 100%, dimethyl sulfoxide) with 495 μL of methanol, 3 μL of the diluted methanol solution (1% dimethyl sulfoxide) was mixed with 57 μL of human or mouse blood serum solution in a 1.5 mL tube. The mixed test compound solution was serially diluted, 12 μL for each, with 48 μL of 100% blood serum to have 5 different concentrations, and each tube was kept for 15 minutes in a water bath with constant temperature of 37° C. Subsequently, a solution prepared by diluting 10 mg/mL 18:1 LPC solution (50% ethanol) with blood serum to have concentration of 375 μg/mL was aliquoted in an amount of 2 μL to each tube so as to have 50 μL. Each tube was kept for 3 hours in a water bath at 37° C. to allow a reaction. To the tube obtained after the reaction, 100 μL of 0.5 μM 17:0 LPA solution (chloroform/methanol/water=65/35/8) was aliquoted and mixed therein. Centrifuge was carried out for 10 minutes using a centrifuge at conditions of 14,000 rpm and 4° C. 100 μL of 50% methanol solution is aliquoted first to a 96-well polypropylene plate (Agilent Technology 5042-1385), and the supernatant (50 μL) in a tube after the centrifuge was carefully transferred to the plate followed by mixing. After covering it with Well cap (Thermo 276011), analysis was carried out by LC-MS/MS (Agilent 1260).
The test was carried out in the same process as Test example 2 to obtain the IC50 values in the following table 4.

[6] = Microsomal stability, human liver microsomes; format: in vitro ADME; settings: both sexes, pH 7.4; human liver microsomes (h), 0.5 mg/mL, NADPH regenerating system; read-out: MS (microsomal stability) t1/2
Description: (§3) A 2.5 mM stock solution of test compound in DMSO is diluted to 25 uM with 100 mM potassium phosphate buffer (pH 7.4) containing 5 mM EDTA. This solution was mixed with reaction mixtures (final concentration 1 μM). The incubation mixtures (final volume 700 μL) of test compound with liver microsomes [Xenotech; rat (male SD), human (mixed gender)] consisted of liver microsomes (0.5 mg/mL), substrate (Compound 4, […]), NADPH regenerating system (1.3 mM NADP+, 3.3 mM Glucose-6-phosphate, 3.3 mM MgCl2, 0.4 U/ml Glucose-6-phosphate dehydrogenase) in 81.3 mM potassium phosphate buffer (pH 7.4) containing 1 mM EDTA in duplicates. The reaction was initiated by addition of the NADPH regenerating system after preincubation at 37° C. for 10 min with test compounds. 100 uL of aliquot of the sample was removed at 0, 5, 10, 20, 30 and 60 min. The reaction was stopped by addition of 200 uL of acetonitrile containing internal standard (0.3 uM of Dextromethorphan). Each sample was mixed and centrifuged at 14000 rpm for 10 min. The resulting supernatant was analyzed by the LC-MS/MS method for determination of loss of parent compound. % parent remaining was calculated at 6 point time testing was done for T½ determination.

[7] = Microsomal stability, rat liver microsomes; format: in vitro ADME; settings: male, SD, pH 7.4; rat liver microsomes (r), 0.5 mg/mL, NADPH regenerating system; read-out: MS (microsomal stability) t1/2
Description: as §3

[8] = FS-3 assay, same process as Test example 1, read-out: Enzymatic assay (IC50) FS-3

SMILES | IC50 ([1]; human ENPP2, FS-3 substrate, 30 min at 37° C., read-out: IC50) [nM] | IC50 [2] [nM] | IC50 [3] [nM] | IC50 [1, 8] [nM] | IC50 [4] [nM] | IC50 [5] [nM] | half-life at 1 µM [6] [min] | half-life at 1 µM [7] [min]
O=C(Cc1nnc(-c2cnc(NC3CC=C(c4cccc(Cl)c4)CC3)nc2)o1)N1CCc2[nH]nnc2C1 (stereo not drawn) [Compound 35, 2-[5-(2-{[4-(3-chlorophenyl)cyclohex-3-en-1-yl]amino}pyrimidin-5-yl)-1,3,4-oxadiazol-2-yl]-1-{1H,4H,5H,6H,7H-[1,2,3]triazolo[4,5-c]pyridin-5-yl}ethan-1-one] | 2.4 | 46 | 99 |  |  |  |  | 
O=C(Cn1cc(-c2cnc(NC3Cc4ccccc4C3)nc2)c(-c2ccncc2)n1)N1CCc2[nH]nnc2C1 [Compound 96, 2-(4-{2-[(2,3-dihydro-1H-inden-2-yl)amino]pyrimidin-5-yl}-3-(pyridin-4-yl)-1H-pyrazol-1-yl)-1-{1H,4H,5H,6H,7H-[1,2,3]triazolo[4,5-c]pyridin-5-yl}ethan-1-one] |  |  |  | 2.02 | < 1.56 | 3.65 | 22.2 | 30 ± 1.57
O=C(CO)N1CCN(C(=O)Cn2cc(-c3cnc(NC4Cc5ccccc5C4)nc3)c(-c3ccncc3)n2)CC1 [Compound 115, 1-{4-[2-(4-{2-[(2,3-dihydro-1H-inden-2-yl)amino]pyrimidin-5-yl}-3-(pyridin-4-yl)-1H-pyrazol-1-yl)acetyl]piperazin-1-yl}-2-hydroxyethan-1-one] |  |  |  | 3.04 | 66.8 | 125 | > 60 | > 60
O=C(Cn1cc(-c2cnc(NC3Cc4ccccc4C3)nc2)c(-c2ccccn2)n1)N1CCc2[nH]nnc2C1 [Compound 116, 2-(4-{2-[(2,3-dihydro-1H-inden-2-yl)amino]pyrimidin-5-yl}-3-(pyridin-2-yl)-1H-pyrazol-1-yl)-1-{1H,4H,5H,6H,7H-[1,2,3]triazolo[4,5-c]pyridin-5-yl}ethan-1-one] |  |  |  | < 1.56 | < 1.56 | 7.1 | 33 | 25.2 ± 0.69
